Results published in patent US8759520B2, “Compounds for treating cancer” (Boehringer Ingelheim International GmbH, priority 2008, dated 2014).

Each compound was assayed against Bcl-2 (Homo sapiens, UniProt P10415) (assay: Homogeneous HTS assay for inhibitors of the Bcl-2 : Bak (72-87) BH3 domain interaction, fluorescence polarisation (2D-FIDA)). Conditions: fluorescence polarisation, fluorescent labelled Bak BH3 domain derived peptide; read-out: IC50 [μM] Bcl-2.
Assay type: binding
Excerpt: FIG. 1 is a schematic drawing of the Bcl-2: Bak (72-87) interaction assay based on fluorescence polarisation.
The homogeneous HTS assay for inhibitors of the Bcl-2 is shown schematically in FIG. 1. BH3 domain interaction is based on fluorescence polarisation. The inherent rotational diffusion of the Bak BH3 domain derived fluorescent labelled peptide decreases upon binding to Bc1-2. This shift in rotational diffusion is quantitated using the two-dimensional fluorescence intensity distribution analysis (2D-FIDA; Kask et al. 2000, Biophys. J. 78: 1703-1713).
Two different BH3 domain derived peptide ligands were synthesised and subsequently fluorescently labelled: • a 16mer peptide covering amino acids 72-87 of the Bak protein; this peptide had been used by Wang and co-workers and Holinger and coworkers in their Bcl-2 protein binding studies; Wang and co-workers reported an equilibrium binding constant KD of ˜0.2 μM to Bcl-2 protein; • peptide sequence: GQVGRQLAIIGDDINR—N (Wang et al. 2002, Proc. Natl. Acad. Sci. U.S.A. 97: 7124-7129; Holinger et al. 1999, J. Biol. Chem. 274: 13298-13304).

Sequence of Bcl-2 (P10415 whole entry, species assumed, the tested form may be a part): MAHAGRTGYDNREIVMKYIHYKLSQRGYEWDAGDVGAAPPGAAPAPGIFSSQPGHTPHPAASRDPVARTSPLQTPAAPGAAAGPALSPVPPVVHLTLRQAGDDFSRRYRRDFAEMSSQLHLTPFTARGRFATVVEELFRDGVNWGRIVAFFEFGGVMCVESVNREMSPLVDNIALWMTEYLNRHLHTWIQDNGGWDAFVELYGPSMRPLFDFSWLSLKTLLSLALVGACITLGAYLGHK

Row | Structure (SMILES) | IC50 [µM]
1 | Cc1ccc(OCC(O)Cn2c(=N)n(Cc3ccccc3)c3ccccc32)cc1 (centres unmarked) [Compound 99, 1-(3-Benzyl-2-imino-2,3-dihydro-benzoimidazol-1-yl)-3-p-tolyloxy-propan-2-ol] | 11 to 100
2 | N=c1n(CCCOc2ccc(F)cc2)c2ccccc2n1Cc1ccc(N2CCN(Cc3ccccc3Cl)CC2)cc1 [Compound 20, 1-{4-[4-(2-Chloro-benzyl)-piperazin-1-yl]-benzyl}-3-[3-(4-fluoro-phenoxy)-propyl]-1,3-dihydro-benzoimidazol-2-ylideneamine] | < 10
3 | N=c1n(Cc2ccccc2)c2ccccc2n1Cc1ccncc1 [Compound 3, 1-Benzyl-3-pyridin-4-ylmethyl-1,3-dihydro-benzoimidazol-2-ylideneamine] | > 100
4 | N=c1n(CCCOc2ccc(F)cc2)c2ccccc2n1Cc1ccc(N2CCN(Cc3ccc(Cl)cc3)CC2)nc1 [Compound 55, 1-{6-[4-(4-Chloro-benzyl)-piperazin-1-yl]-pyridin-3-ylmethyl}-3-[3-(4-fluoro-phenoxy)-propyl]-1,3-dihydro-benzoimidazol-2-ylideneamine] | 11 to 100
5 | N=c1n(CCCOc2ccc(F)cc2)c2ccccc2n1Cc1csc(N2CCN(Cc3ccccc3-c3ccc(Cl)cc3)CC2)n1 [Compound 36, 1-{2-[4-(4′-Chloro-biphenyl-2-ylmethyl)-piperazin-1-yl]-thiazol-4-ylmethyl}-3-[3-(4-fluoro-phenoxy)-propyl]-1,3-dihydro-benzoimidazol-2-ylideneamine] | < 10
6 | CCOC(=O)c1cccc(OCCCn2c(=N)n(Cc3ccc(Br)cc3)c3ccccc32)c1 [Compound 65, 3-{3-[3-(4-Bromo-benzyl)-2-imino-2,3-dihydro-benzoimidazol-1-yl]-propoxy}-benzoic acid ethyl ester] | 11 to 100
7 | N=c1n(CCCOc2ccc(F)cc2)c2ccccc2n1Cc1ccc(Br)cc1 [Compound 5, 1-(4-Bromo-benzyl)-3-[3-(4-fluoro-phenoxy)-propyl]-1,3-dihydro-benzoimidazol-2-ylideneamine] | < 10
8 | N=c1n(CCCOc2ccc(F)cc2)c2ccccc2n1Cc1ccc(CN2CCN(c3ccccc3Cl)CC2)cc1 [Compound 44, 1-{4-[4-(2-Chloro-phenyl)-piperazin-1-ylmethyl]-benzyl}-3-[3-(4-fluoro-phenoxy)-propyl]-1,3-dihydro-benzoimidazol-2-ylideneamine] | 11 to 100
9 | Cc1ccc(Cn2c(=N)n(CC(O)COc3ccccc3)c3ccccc32)cc1 (centres unmarked) [Compound 100, 1-[2-Imino-3-(4-methyl-benzyl)-2,3-dihydro-benzoimidazol-1-yl]-3-phenoxy-propan-2-ol] | 11 to 100
10 | N=c1n(CCCOc2cccc(C(=O)O)c2)c2ccccc2n1Cc1cccc(Br)c1 [Compound 84, 3-{3-[3-(3-Bromo-benzyl)-2-imino-2,3-dihydro-benzoimidazol-1-yl]-propoxy}-benzoic acid] | 11 to 100
11 | N=c1n(CCCOc2ccc(Br)cc2)c2ccccc2n1Cc1ccccc1 [Compound 87, 1-Benzyl-3-[3-(4-bromo-phenoxy)-propyl]-1,3-dihydro-benzoimidazol-2-ylideneamine] | 11 to 100
12 | N=c1n(CCSc2ccccc2)c2ccccc2n1Cc1ccc(N2CCN(Cc3ccccc3-c3ccc(Cl)cc3)CC2)cc1 [Compound 33, 1-{4-[4-(4′-Chloro-biphenyl-2-ylmethyl)-piperazin-1-yl]-benzyl}-3-(2-phenylsulfanyl-ethyl)-1,3-dihydro-benzoimidazol-2-ylideneamine] | < 10
13 | N=c1n(Cc2cccc(N3CCN(Cc4ccccc4-c4ccccc4)CC3)c2)c2ccccc2n1CC(O)COc1ccc(F)cc1 (centres unmarked) [Compound 82, 1-{3-[3-(4-Biphenyl-2-ylmethyl-piperazin-1-yl)-benzyl]-2-imino-2,3-dihydro-benzoimidazol-1-yl}-3-(4-fluoro-phenoxy)-propan-2-ol] | < 10
14 | N=c1n(Cc2ccc(Cl)cc2)c2ccccc2n1CC(O)COc1ccc(Cl)cc1 (centres unmarked) [Compound 105, 1-[3-(4-Chloro-benzyl)-2-imino-2,3-dihydro-benzoimidazol-1-yl]-3-(4-chloro-phenoxy)-propan-2-ol] | 11 to 100
15 | COc1ccccc1OCC(O)Cn1c(=N)n(Cc2ccccc2)c2ccccc21 (centres unmarked) [Compound 89, 1-(3-Benzyl-2-imino-2,3-dihydro-benzoimidazol-1-yl)-3-(2-methoxy-phenoxy)-propan-2-ol] | 11 to 100
16 | N=c1n(CCCOc2ccc(F)cc2)c2ccc(F)cc2n1Cc1ccc(Br)cc1 [Compound 59, 3-(4-Bromo-benzyl)-5-fluoro-1-[3-(4-fluoro-phenoxy)-propyl]-1,3-dihydro-benzoimidazol-2-ylideneamine] | 11 to 100
17 | N=c1n(CCCOc2ccccc2)c2ccccc2n1Cc1ccccc1F [Compound 96, 1-(2-Fluoro-benzyl)-3-(3-phenoxy-propyl)-1,3-dihydro-benzoimidazol-2-ylideneamine] | 11 to 100
18 | N=c1n(CCCOc2ccc(F)cc2)c2ccccc2n1Cc1cccc(Cl)c1 [Compound 10, 1-(3-Chloro-benzyl)-3-[3-(4-fluoro-phenoxy)-propyl]-1,3-dihydro-benzoimidazol-2-ylideneamine] | 11 to 100
19 | CCOC(=O)Cn1c(=N)n(CCCOc2ccc(F)cc2)c2ccccc21 [Compound 8, {3-[3-(4-Fluoro-phenoxy)-propyl]-2-imino-2,3-dihydro-benzoimidazol-1-yl}-acetic acid ethyl ester] | 11 to 100
20 | N=c1n(CCCOc2ccc(F)cc2)c2ccccc2n1Cc1cccc(Br)c1 [Compound 6, 1-(3-Bromo-benzyl)-3-[3-(4-fluoro-phenoxy)-propyl]-1,3-dihydro-benzoimidazol-2-ylideneamine] | 11 to 100
21 | N=c1n(CCCOc2ccc(Cl)cc2)c2ccccc2n1Cc1ccc(Br)cc1 [Compound 12, 1-(4-Bromo-benzyl)-3-[3-(4-chloro-phenoxy)-propyl]-1,3-dihydro-benzoimidazol-2-ylideneamine] | 11 to 100
22 | CC1(C)CCC(c2ccc(Cl)cc2)=C(CN2CCN(c3cccc(Cn4c(=N)n(CCCOc5cccc(C(=O)O)c5)c5ccccc54)c3)CC2)C1 [Compound 75, 3-{3-[3-(3-{4-[2-(4-Chloro-phenyl)-5,5-dimethyl-cyclohex-1-enylmethyl]-piperazin-1-yl}-benzyl)-2-imino-2,3-dihydro-benzoimidazol-1-yl]-propoxy}-benzoic acid] | < 10
23 | Cc1ccccc1OCC(O)Cn1c(=N)n(Cc2ccccc2)c2ccccc21 (centres unmarked) [Compound 79, 1-(3-Benzyl-2-imino-2,3-dihydro-benzoimidazol-1-yl)-3-o-tolyloxy-propan-2-ol] | 11 to 100
24 | N=c1n(Cc2ccccc2)c2ccccc2n1CC1CCOCC1 [Compound 4, 1-Benzyl-3-(tetrahydro-pyran-4-ylmethyl)-1,3-dihydro-benzoimidazol-2-ylideneamine] | > 100
25 | CCCCCn1c(=N)n(CC(O)COc2ccccc2OC)c2ccccc21 (centres unmarked) [Compound 98, 1-(2-Imino-3-pentyl-2,3-dihydro-benzoimidazol-1-yl)-3-(2-methoxy-phenoxy)-propan-2-ol] | 11 to 100
26 | N=c1n(CCCOc2ccc([N+](=O)[O-])cc2)c2ccccc2n1Cc1ccc(Br)cc1 [Compound 14, 1-(4-Bromo-benzyl)-3-[3-(4-nitro-phenoxy)-propyl]-1,3-dihydro-benzoimidazol-2-ylideneamine] | 11 to 100
